Here are results for nine compounds from US10253017B2, “Derivatives of 2-aminopyridine as adenosine A2B receptor antagonists and ligands of the melatonin MT3 receptors” (PALOBIOFARMA, S.L., priority 2015, dated 2019).

One test has as its target MT3 melatonin receptor (Mesocricetus auratus, UniProt A0ABM2YAB8). In words: Binding to melatonin MT3 binding sites ([125I]2-iodomelatonin, hamster brain membranes). To be noted: [125I]2-iodomelatonin radioligand. As to the method: Study of Binding to Melatonin MT3 Binding Sites
The experiment of binding to MT3 sites was carried out on hamster brain membranes using [^125I]2-iodomelatonin as radioligand in accordance with the protocol described by Pickering, D. S et al. (Pickering, D. S et al, 1990, Pharmacological characterization of melatonin binding sites in Syrian hamster hypothalamus, Eur J Pharmacol. 1990 Jan. 3; 175(1):71-7).

Another test addresses adenosine A2A receptor (Homo sapiens (Human), UniProt P29274). In words: Adenosine A2A receptor binding (hA2A Ki).
The target of another test is adenosine A2B receptor (Homo sapiens (Human), UniProt P29275). In words: Adenosine A2B receptor subtype competition radioligand binding assay ([3H]DPCPX). To be noted: human recombinant receptor (HEK-293 cells), [3H]DPCPX radioligand; read-out: hA2B, Ki. An excerpt:
Adenosine A2B Receptor Subtype Competition Radioligand Binding Assay

adenosine A2A receptor, sequence (P29274 whole entry): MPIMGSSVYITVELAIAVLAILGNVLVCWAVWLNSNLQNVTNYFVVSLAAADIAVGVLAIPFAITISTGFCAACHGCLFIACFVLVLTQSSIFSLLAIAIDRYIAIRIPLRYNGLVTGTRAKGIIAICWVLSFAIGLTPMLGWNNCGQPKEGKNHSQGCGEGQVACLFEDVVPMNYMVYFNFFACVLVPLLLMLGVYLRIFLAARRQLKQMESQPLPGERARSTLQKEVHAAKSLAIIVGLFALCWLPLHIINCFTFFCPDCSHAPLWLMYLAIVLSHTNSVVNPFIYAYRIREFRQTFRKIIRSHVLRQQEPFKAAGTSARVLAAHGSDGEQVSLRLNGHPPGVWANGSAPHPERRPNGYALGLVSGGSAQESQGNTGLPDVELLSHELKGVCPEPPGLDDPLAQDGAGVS
adenosine A2B receptor, sequence (P29275 whole entry): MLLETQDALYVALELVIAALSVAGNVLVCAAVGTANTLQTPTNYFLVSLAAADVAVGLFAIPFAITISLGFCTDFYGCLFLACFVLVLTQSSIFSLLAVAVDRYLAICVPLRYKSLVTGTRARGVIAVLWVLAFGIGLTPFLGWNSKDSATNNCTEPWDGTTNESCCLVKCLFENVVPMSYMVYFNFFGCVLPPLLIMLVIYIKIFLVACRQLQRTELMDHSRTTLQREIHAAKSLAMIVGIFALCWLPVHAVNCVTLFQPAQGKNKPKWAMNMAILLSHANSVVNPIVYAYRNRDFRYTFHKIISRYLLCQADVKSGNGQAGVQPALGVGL
MT3 melatonin receptor, sequence (A0ABM2YAB8 1-231): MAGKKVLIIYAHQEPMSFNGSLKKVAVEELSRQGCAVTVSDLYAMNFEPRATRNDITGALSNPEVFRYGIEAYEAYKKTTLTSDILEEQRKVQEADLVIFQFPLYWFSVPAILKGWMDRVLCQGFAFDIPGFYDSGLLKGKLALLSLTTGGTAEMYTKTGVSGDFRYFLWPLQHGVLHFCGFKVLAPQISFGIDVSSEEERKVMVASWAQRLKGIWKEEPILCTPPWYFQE

On to `Nc1nc(-c2cncc(F)c2)c(-c2ccncc2F)cc1Cl` [Example 27, 3-chloro-6-(5-fluoropyridin-3-yl)-5-(3-fluoropyridin-4-yl)pyridin-2-amine], for which the IC50 – broadly, the midpoint of a concentration-inhibition curve – on MT3 melatonin receptor was found to be 250 nM. In addition, the Ki (in general, a dissociation constant, usually derived from enzyme kinetics or from competition with a known ligand) was greater than 5000 nM on adenosine A2A receptor and 150 nM at adenosine A2B receptor.

In turn, `Nc1nc(-c2cccnc2)c(-c2ccncc2F)cc1Cl` [Example 23, 3-chloro-5-(3-fluoropyridin-4-yl)-6-(pyridin-3-yl)pyridin-2-amine] had a half-inhibitory concentration (IC50) on MT3 melatonin receptor of 98 nM. The Ki at adenosine A2A receptor came out at 4800 nM; at adenosine A2B receptor, 23.9 nM.

For `Nc1ccc(-c2ccncc2F)c(-c2ccncc2)n1` [Example 11, 5-(3-fluoropyridin-4-yl)-6-(pyridin-4-yl)pyridin-2-amine], the Ki is greater than 5000 nM on adenosine A2A receptor and 149 nM at adenosine A2B receptor.

On to `Nc1nc(-c2ccncc2)c(-c2ccncc2F)cc1Br` [Example 35, 3-bromo-5-(3-fluoropyridin-4-yl)-6-(pyridin-4-yl)pyridin-2-amine], for which the Ki on adenosine A2A receptor amounted to 1300 nM; at adenosine A2B receptor, 13 nM.

As to `Nc1nc(-c2cccnc2)c(-c2ccncc2)cc1Cl` [Example 21, 3-chloro-6-(pyridin-3-yl)-5-(pyridin-4-yl)pyridin-2-amine], on MT3 melatonin receptor, the IC50 turned out to be 130 nM. In addition, the Ki at adenosine A2A receptor stood at 500 nM; at adenosine A2B receptor, 34.5 nM.

As to `COc1ccc(-c2nc(N)c(Cl)cc2-c2ccncc2F)cn1` [Example 36, 3-chloro-5-(3-fluoropyridin-4-yl)-6-(6-methoxypyridin-3-yl)pyridin-2-amine], the Ki at adenosine A2A receptor is greater than 5000 nM; on adenosine A2B receptor, 24 nM.

Turning to `Nc1nc(-c2cccnc2)c(-c2ccncc2F)cc1Br` [Example 24, 3-bromo-5-(3-fluoropyridin-4-yl)-6-(pyridin-3-yl)pyridin-2-amine], the Ki was greater than 5000 nM on adenosine A2A receptor and 37 nM on adenosine A2B receptor.

As to `Nc1nc(-c2ccncc2)c(-c2ccncc2F)cc1Cl` [Example 34, 3-chloro-5-(3-fluoropyridin-4-yl)-6-(pyridin-4-yl)pyridin-2-amine], the values for the Ki on adenosine A2A receptor and on adenosine A2B receptor were 555 nM and 12 nM, respectively.

`Nc1nc(-c2cccnc2)c(-c2ccncc2)cc1Br` [Example 22, 3-bromo-6-(pyridin-3-yl)-5-(pyridin-4-yl)pyridin-2-amine] gave an IC50 on MT3 melatonin receptor of 140 nM. Also, the Ki on adenosine A2A receptor was determined as 300 nM; at adenosine A2B receptor, 46.1 nM.
